Results from patent US9029414B2, “Triterpenoid compounds and methods of use thereof” (Biotechnology Research Corporation, priority 2008, dated 2015).

Assays:
[1] = molecular target: TP receptor (Homo sapiens, UniProt P21731); assay: Radioligand competition binding assay, TP; conditions: target Thromoboxanes A, compound at 10 μM in duplicate, read-out: % inhibition of control specific binding
Procedure: (§1) DA001 was further evaluated against 32 receptor binding assays. Radioligand competition assays were conducted whereby DA001 was tested at one concentration (10 uM) in duplicate. […] It could compete with the radioligand [^3H] PGE2 binding at the EP1 and EP4 receptors, and weakly competed with the EP2 and FP receptors.
(§2) To determine the targets of DA compounds, the compound was assessed in binding assays for the family of prostanoid receptors. Both compounds were tested at a single concentration (10 μM) in duplicate. DA001 and DA021 inhibit the ligand binding of prostaglandin E2 receptors EP1, EP2 and EP4 and moderately to prostaglandin (PGF) to its receptor (FP), but not prostaglandin I (PGI2), thromoboxane A and prostaglandin D2 to their receptors.

[2] = molecular target: IP receptor (Homo sapiens, UniProt P43119); assay: Radioligand competition binding assay, IP; conditions: target PGI, compound at 10 μM in duplicate, read-out: % inhibition of control specific binding
Sequence of IP receptor (P43119 whole entry): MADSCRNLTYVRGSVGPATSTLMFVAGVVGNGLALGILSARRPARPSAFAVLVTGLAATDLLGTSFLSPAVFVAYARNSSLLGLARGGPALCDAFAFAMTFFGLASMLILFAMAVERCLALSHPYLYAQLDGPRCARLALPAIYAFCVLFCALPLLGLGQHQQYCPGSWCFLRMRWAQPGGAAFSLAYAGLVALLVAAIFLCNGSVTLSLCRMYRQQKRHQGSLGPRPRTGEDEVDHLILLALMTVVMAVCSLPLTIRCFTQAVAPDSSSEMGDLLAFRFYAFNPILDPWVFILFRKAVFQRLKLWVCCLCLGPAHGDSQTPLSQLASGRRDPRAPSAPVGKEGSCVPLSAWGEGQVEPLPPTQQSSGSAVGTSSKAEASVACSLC
Procedure: as §1, §2

[3] = molecular target: EP2 receptor (Homo sapiens, UniProt P43116); assay: Radioligand competition binding assay, EP2; conditions: EP2, target PGE2; compound at 10 μM in duplicate; read-out: % inhibition of control specific binding
Sequence of EP2 receptor (P43116 whole entry): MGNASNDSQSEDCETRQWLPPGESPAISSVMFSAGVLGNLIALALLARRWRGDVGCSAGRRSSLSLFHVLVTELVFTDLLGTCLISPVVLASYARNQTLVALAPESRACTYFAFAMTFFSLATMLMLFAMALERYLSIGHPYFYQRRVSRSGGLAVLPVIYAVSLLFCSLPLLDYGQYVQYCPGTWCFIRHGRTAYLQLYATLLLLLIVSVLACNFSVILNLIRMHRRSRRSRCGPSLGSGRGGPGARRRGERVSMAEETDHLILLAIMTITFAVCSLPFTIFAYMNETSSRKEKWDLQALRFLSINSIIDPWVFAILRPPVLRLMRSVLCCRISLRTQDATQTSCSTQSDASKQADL
Procedure: as §1, §2

[4] = test system: MOG-induced IL-6 in primary splenocytes; assay: IL-6 Quantikine ELISA in primary splenocytes of EAE mice; format: cell-based; conditions: exogenous compound 30 μM; for amount of IL-6 in response to exogenous compound: splenocytes of compound-treated EAE mice (100 mg/kg); for reduction in the amount of MOG-induced IL-6: splenocytes of vehicle-treated EAE mice, MOG 25 μg/mL, 48 hrs
Procedure: On day 21, EAE mice were sacrificed by cervical dislocation and spleens were removed aseptically. The removed spleens were then cut with sterilized scissors and strained through […] mesh (BD Bioscience) with a plunger of 5 mL syringe (BD Bioscience) in 9 mL of RPMI 1640 (Invitrogen) with 100 U/mL penicillin and 100 μg/mL streptomycin (Sigma). The cell mixture was then added to 9 mL of Lympholyte (Cedarlane Laboratories) for gradient separation of splenocytes from red bloods cells by centrifugation at 1500 g for 20 min. After the centrifugation, the lympholyte layer containing splenocytes were carefully removed and washed with 10 mL of RPMI 1640 at 800 g for 10 min for three times. The isolated splenocytes were seeded onto different plate format and cultured with RPMI 1640 medium (Invitrogen) supplement with 10% heat inactivated fetal bovine serum (Invitrogen) and 100 U/mL penicillin and 100 μg/mL streptomycin at 37° C. CO2 incubator.
Splenocytes from EAE mice were cultured at the density of 1×10^6 cells in 12-well plates (Falcon) in the absence or presence of the MOG peptide (25 μg/mL) (Hooke Laboratories), DA001 and DA021 (30 μM) with RPMI 1640 medium (Invitrogen) supplement with 10% heat inactivated fetal bovine serum (Invitrogen) and 100 U/mL penicillin and 100 μg/mL streptomycin (Sigma) for 48 h. After 48 h, the supernatants were collected by pelleting the cells at 300 g for 10 min at 4° C. 50 μL of the each sample was added to the microtiter plate provided by the manufacturer of the Quantikine ELISA assay kit (R and D systems). Additional 50 μL of assay diluents buffer was added and incubated at room temperature for 2 h. After the incubation, the supernatants were discarded and the cells were washed with wash buffer. […] Subsequently, 100 μL of stop solution was added to each well and the plate was read in 450 nm wavelength on a microplate reader (Dynex Revelation 2.2).
(§3) Cells were cultured in RPMI 1640 medium supplement with 10% heat inactivated fetal bovine serum and penicillin/streptomycin, in the absence or presence of MOG (25 μg/mL, Ex) with or without DA001 or DA021 (30 μM, Ex). […] The amount of IL-6 was calculated based on the standard curve established during the assay. […]
as §3, with “DA001” for “DA001 or DA021”
as §3, with “without” for “without DA001 or”

[5] = molecular target: FP receptor (Homo sapiens, UniProt P43088); assay: Radioligand competition binding assay, FP; conditions: target PGF, compound at 10 μM in duplicate, read-out: % inhibition of control specific binding
Sequence of FP receptor (P43088 whole entry): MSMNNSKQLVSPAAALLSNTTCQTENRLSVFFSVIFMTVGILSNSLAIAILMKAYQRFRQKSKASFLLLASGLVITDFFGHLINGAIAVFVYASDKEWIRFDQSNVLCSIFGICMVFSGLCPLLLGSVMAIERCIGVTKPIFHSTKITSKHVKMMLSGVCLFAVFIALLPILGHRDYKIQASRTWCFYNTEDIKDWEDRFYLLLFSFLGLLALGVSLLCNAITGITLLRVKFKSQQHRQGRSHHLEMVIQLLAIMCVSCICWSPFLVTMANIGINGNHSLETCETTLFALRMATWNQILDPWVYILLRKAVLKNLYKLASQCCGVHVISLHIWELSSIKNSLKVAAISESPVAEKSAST
Procedure: as §1, §2

[6] = molecular target: T1, EP1 receptor (Homo sapiens, UniProt P34995); assay: Radioligand competition binding assay, EP1; conditions: EP1, target PGE2; compound at 10 μM in duplicate; read-out: % inhibition of control specific binding
T1 sequence (P34995 1-402): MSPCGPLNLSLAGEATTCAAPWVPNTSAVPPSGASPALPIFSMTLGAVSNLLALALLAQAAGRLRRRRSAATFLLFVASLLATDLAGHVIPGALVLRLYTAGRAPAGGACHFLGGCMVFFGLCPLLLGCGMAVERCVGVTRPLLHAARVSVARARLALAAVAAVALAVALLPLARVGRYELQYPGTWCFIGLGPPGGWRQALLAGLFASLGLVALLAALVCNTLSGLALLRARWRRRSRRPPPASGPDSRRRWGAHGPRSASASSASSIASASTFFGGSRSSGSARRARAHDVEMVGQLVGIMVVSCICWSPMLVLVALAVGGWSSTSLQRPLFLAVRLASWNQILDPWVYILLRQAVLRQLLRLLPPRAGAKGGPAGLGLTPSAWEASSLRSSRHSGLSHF
Procedure: as §1, §2

Sequence of TP receptor (P21731 whole entry): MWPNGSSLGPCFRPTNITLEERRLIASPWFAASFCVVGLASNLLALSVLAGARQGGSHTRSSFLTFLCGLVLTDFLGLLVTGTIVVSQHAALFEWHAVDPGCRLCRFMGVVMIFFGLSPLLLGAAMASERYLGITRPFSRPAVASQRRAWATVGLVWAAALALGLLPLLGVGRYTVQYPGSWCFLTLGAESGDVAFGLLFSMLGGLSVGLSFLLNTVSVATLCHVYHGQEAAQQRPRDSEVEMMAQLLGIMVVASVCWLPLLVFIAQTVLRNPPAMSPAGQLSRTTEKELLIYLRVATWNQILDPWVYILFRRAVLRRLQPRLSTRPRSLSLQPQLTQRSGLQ

SMILES | inhibition at 10 µM [1] [%] | inhibition at 10 µM [2] [%] | inhibition at 10 µM [3] [%] | amount of IL-6 in response to exogenous compound [4] | reduction in the amount of MOG-induced IL-6 [4] [%] | inhibition at 10 µM [5] [%] | inhibition at 10 µM [6] [%]
C=C(C)[C@@H]1CC[C@]2(/C=N/O)CC[C@]3(C)C(CCC4[C@@]5(C)CCC(=O)[C@@](C)(CO)[C@@H]5CC[C@]43C)C12 (some centres unmarked) [DA021] | 17 | 9 | 42 | markedly decreased | 79 | 52 | 31
C=C(C)[C@@H]1CC[C@]2(C(=O)O)CC[C@]3(C)C(CC[C@@H]4[C@@]5(C)CC[C@H](O[C@@H]6OC[C@H](O)[C@H](O)[C@H]6O[C@@H]6O[C@@H](C)[C@H](O)[C@@H](O)[C@H]6O)[C@@](C)(CO)[C@@H]5CC[C@]43C)[C@@H]12 (stereo partly drawn) [DA001, 3-O-[α-L-rhamnopyranosyl-(1→2)-α-L-arabinopyranosyl]-3,23-dihydroxy-20(29)-lupen-28-oic acid] | 17 | 0 | 31 | markedly decreased | 73 | 27 | 52
